# US20230233567A1, “BELVARAFENIB FOR USE IN CANCER TREATMENT” (Hanmi Pharm. Co., Ltd., priority 2020, published 2023)
# Like-named read-outs stand apart in the source and are kept apart here.
# Assay: Phase I study plasma pharmacokinetics
# Format: in vivo, human
# Conditions: for AUC(0-inf) / AUC(0-t) / Cmax / AUC / Vd/F / Tmax: human, plasma, oral; for AUC: read-out: AUC24; for Vd/F: read-out: Vz/F; for Tmax: median, read-out: Tmax
# From the text: The PK parameters of belvarafenib were estimated in 48 patients in the dose-escalation phase and 35 patients in the dose-expansion phase. In the tables: “AUClast” refers to the area under the plasma concentration-time curve from zero time until the last measurable concentration; “AUC0-∞” refers to area under the plasma concentration-time curve from zero time to infinity; “AUC24” refers to the area under the curve from T0 to T24; “Cmax” refers to the maximal concentration; “Tmax” refers to the time to reach Cmax; “T1/2β” refers to the terminal elimination half-life; “QD” refers to once a day; and “BID” refers to twice a day. […] Mean and coefficient of variation are presented except for Tmax where median and range are presented. One patient in the 200 QD dosing regimen who took concomitant rifampin was removed from the analysis because the AUC and Cmax of the patient were much lower than those of the others in the same cohort, which, without being bound to any particular theory, could have resulted from the drug-metabolizing enzyme induction by rifampin through which belvarafenib is biotransformed.
# [1] = Day 1 first dose, 50 mg/day QD, n=3, mean
# [2] = Day 1 first dose, 100 mg/day QD, n=3, mean
# [3] = Day 1 first dose, 200 mg/day QD, n=6, mean
# [4] = Day 1 first dose, 200 mg/day QD, n=7, mean
# [5] = Day 1 first dose, 400 mg/day BID, n=11, mean
# [6] = Day 1 first dose, 600 mg/day BID, n=7, mean
# [7] = Day 1 first dose, 600 mg/day QD, n=6, mean
# [8] = Day 1 first dose, 900 mg/day BID, n=8, mean
# [9] = Day 1 first dose, 1300 mg/day BID, n=6, mean
# [10] = Day 1 first dose, 1600 mg/day BID, n=6, mean
# [11] = Multiple administrations Day 17, 50 mg/day QD, n=2, mean
# [12] = Multiple administrations Day 22, 100 mg/day QD, n=3, mean
# [13] = Multiple administrations Day 22, 200 mg/day QD, n=5, mean
# [14] = Multiple administrations Day 22, 200 mg/day QD, n=6, mean
# [15] = Multiple administrations Day 22, 400 mg/day BID, n=8, mean
# [16] = 50 mg/day, Multiple administrations Day 17, 50 mg/day QD, n=2, mean
# [17] = 100 mg/day, Multiple administrations Day 22, 100 mg/day QD, n=3, mean
# [18] = 200 mg/day, Multiple administrations Day 22, 200 mg/day QD, n=5, mean
# [19] = 200 mg/day, Multiple administrations Day 22, 200 mg/day QD, n=6, mean
# [20] = 400 mg/day, Multiple administrations Day 22, 400 mg/day BID, n=8, mean
# [21] = 600 mg/day, Multiple administrations Day 22, 600 mg/day BID, n=6, mean
smiles,measurement,setting,value
Cc1ccc2c(Nc3cccc(Cl)c3F)nccc2c1NC(=O)c1csc2c(N)ncnc12 [Belvarafenib],CL/F,[1],2.5 L/h
same,T1/2β,[1],51.6 h
same,CL/F,[2],2.5 L/h
same,T1/2β,[2],55.3 h
same,CL/F,[3],7.3 L/h
same,T1/2β,[3],57.7 h
same,CL/F,[4],15.4 L/h
same,T1/2β,[4],50.5 h
same,CL/F,[5],7.8 L/h
same,T1/2β,[5],70.7 h
same,CL/F,[6],7.7 L/h
same,T1/2β,[6],86.6 h
same,CL/F,[7],9.9 L/h
same,T1/2β,[7],58.9 h
same,CL/F,[8],5.7 L/h
same,T1/2β,[8],84.3 h
same,CL/F,[9],9.0 L/h
same,T1/2β,[9],77.4 h
same,CL/F,[10],14.5 L/h
same,T1/2β,[10],215.8 h
same,CL/F,[11],0.6 L/h
same,T1/2β,[11],70.7 h
same,CL/F,[12],0.9 L/h
same,T1/2β,[12],106.1 h
same,CL/F,[13],1.3 L/h
same,T1/2β,[13],69.8 h
same,CL/F,[14],2.4 L/h
same,T1/2β,[14],65.1 h
same,CL/F,[15],3.3 L/h
same,T1/2β,[15],41.2 h
same,T1/2β,"Multiple administrations Day 22, 600 mg/day BID, n=6, mean",52.3 h
same,CL/F,"Multiple administrations Day 22, 600 mg/day BID, n=6, mean (CV)",2.2 (63.3) L/h
same,T1/2β,"Multiple administrations Day 22, 600 mg/day QD, n=6, mean",97.7 h
same,CL/F,"Multiple administrations Day 22, 600 mg/day QD, n=6, mean (CV)",3.4 (81.8) L/h
same,T1/2β,"Multiple administrations Day 22, 900 mg/day BID, n=7, mean",32.3 h
same,CL/F,"Multiple administrations Day 22, 900 mg/day BID, n=7, mean (CV)",3.8 (50.7) L/h
same,T1/2β,"Multiple administrations Day 22, 1300 mg/day BID, n=6, mean",66.4 h
same,CL/F,"Multiple administrations Day 22, 1300 mg/day BID, n=6, mean (CV)",2.7 (54.7) L/h
same,T1/2β,"Multiple administrations Day 22, 1600 mg/day BID, n=4, mean",42.7 h
same,CL/F,"Multiple administrations Day 22, 1600 mg/day BID, n=4, mean (CV)",14.8 (61.2) L/h
same,mean plasma concentration versus dose,from 50 mg QD to 650 mg BID,linearity in a dose-proportional manner
same,AUC(0-inf),[16],88.8 µg·h/mL
same,AUC(0-t),[16],18900 ng·h/mL
same,Cmax,[16],1120 ng/mL
same,AUC,[16],18900 ng·h/mL
same,Vd/F,[16],57.6 L
same,Tmax,"50 mg/day, Multiple administrations Day 17, 50 mg/day QD, n=2",3 h
same,AUC(0-inf),[17],349 µg·h/mL
same,AUC(0-t),[17],41900 ng·h/mL
same,Cmax,[17],1990 ng/mL
same,AUC,[17],42000 ng·h/mL
same,Vd/F,[17],62.7 L
same,Tmax,"100 mg/day, Multiple administrations Day 22, 100 mg/day QD, n=3",5 h
same,AUC(0-inf),[18],239 µg·h/mL
same,AUC(0-t),[18],48200 ng·h/mL
same,Cmax,[18],2520 ng/mL
same,AUC,[18],48200 ng·h/mL
same,Vd/F,[18],116 L
same,Tmax,"200 mg/day, Multiple administrations Day 22, 200 mg/day QD, n=5",3.2 h
same,AUC(0-inf),[19],203 µg·h/mL
same,AUC(0-t),[19],41600 ng·h/mL
same,Cmax,[19],2210 ng/mL
same,AUC,[19],41700 ng·h/mL
same,Vd/F,[19],178 L
same,Tmax,"200 mg/day, Multiple administrations Day 22, 200 mg/day QD, n=6",3.1 h
same,AUC(0-inf),[20],207 µg·h/mL
same,AUC(0-t),[20],67500 ng·h/mL
same,Cmax,[20],3210 ng/mL
same,AUC,[20],68900 ng·h/mL
same,Vd/F,[20],157 L
same,Tmax,"400 mg/day, Multiple administrations Day 22, 400 mg/day BID, n=8",13.1 h
same,AUC(0-inf),[21],507 µg·h/mL
same,AUC(0-t),[21],116000 ng·h/mL
same,Cmax,[21],5700 ng/mL
same,AUC,[21],120000 ng·h/mL
same,Vd/F,[21],122 L
same,Tmax,"600 mg/day, Multiple administrations Day 22, 600 mg/day BID, n=6",3.4 h
same,AUC(0-inf),"600 mg/day, Multiple administrations Day 22, 600 mg/day QD, n=6, mean",434 µg·h/mL
